Among the data in US12209085B2, “RET inhibitors, pharmaceutical compositions and uses thereof” (SUNSHINE LAKE PHARMA CO., LTD., priority 2018, dated 2025) are IC50 values, retold here.

In one assay the target is Ret wt (Homo sapiens (Human), UniProt P07949). As to the kind of experiment: HTRF kinase inhibition assay, Ret wt. Type of assay: biochemical. The following applies: HTRF method. The source says: (§1) • 1. […] 1) • 18) Echo (Labcyte, 550) • 3.
(§2) [formula] • Ratiopositive control: average of CEP-32496 readings in all positive control wells • Rationegative control: average of DMSO readings in all negative control wells • Wherein, the chemical name of CEP-32496 is: N-[3-[(6,7-dimethoxy-4-quinazolinyl)oxy]phenyl]-N′-[5-(2,2,2-trifluoro-1,1-dimethylethyl)-3-isoxazolyl]urea. • 4.3 Calculation of the IC50 and Drawing of the inhibition curve of the compound: • The IC50 (half inhibitory concentration) of the compound was obtained using the following non-linear fitting formula: Data analysis was performed using Graphpad 6.0 software. Y=Bottom+(Top−Bottom)/(1+10^((Log IC50−X)*Hill Slope)) • X: compound concentration log value Y: inhibition, % • 5.
In general terms: TR-FRET usually uses a lanthanide donor and a delayed reading to cut background.

Another assay has as its target Ret V804M (Homo sapiens (Human), UniProt P07949, V804M). As to the kind of experiment: HTRF kinase inhibition assay, Ret V804M. It is filed as biochemical. To be noted: HTRF method.
Source text: as §1, §2

Sequence of Ret V804M (P07949 29-1114 V804M): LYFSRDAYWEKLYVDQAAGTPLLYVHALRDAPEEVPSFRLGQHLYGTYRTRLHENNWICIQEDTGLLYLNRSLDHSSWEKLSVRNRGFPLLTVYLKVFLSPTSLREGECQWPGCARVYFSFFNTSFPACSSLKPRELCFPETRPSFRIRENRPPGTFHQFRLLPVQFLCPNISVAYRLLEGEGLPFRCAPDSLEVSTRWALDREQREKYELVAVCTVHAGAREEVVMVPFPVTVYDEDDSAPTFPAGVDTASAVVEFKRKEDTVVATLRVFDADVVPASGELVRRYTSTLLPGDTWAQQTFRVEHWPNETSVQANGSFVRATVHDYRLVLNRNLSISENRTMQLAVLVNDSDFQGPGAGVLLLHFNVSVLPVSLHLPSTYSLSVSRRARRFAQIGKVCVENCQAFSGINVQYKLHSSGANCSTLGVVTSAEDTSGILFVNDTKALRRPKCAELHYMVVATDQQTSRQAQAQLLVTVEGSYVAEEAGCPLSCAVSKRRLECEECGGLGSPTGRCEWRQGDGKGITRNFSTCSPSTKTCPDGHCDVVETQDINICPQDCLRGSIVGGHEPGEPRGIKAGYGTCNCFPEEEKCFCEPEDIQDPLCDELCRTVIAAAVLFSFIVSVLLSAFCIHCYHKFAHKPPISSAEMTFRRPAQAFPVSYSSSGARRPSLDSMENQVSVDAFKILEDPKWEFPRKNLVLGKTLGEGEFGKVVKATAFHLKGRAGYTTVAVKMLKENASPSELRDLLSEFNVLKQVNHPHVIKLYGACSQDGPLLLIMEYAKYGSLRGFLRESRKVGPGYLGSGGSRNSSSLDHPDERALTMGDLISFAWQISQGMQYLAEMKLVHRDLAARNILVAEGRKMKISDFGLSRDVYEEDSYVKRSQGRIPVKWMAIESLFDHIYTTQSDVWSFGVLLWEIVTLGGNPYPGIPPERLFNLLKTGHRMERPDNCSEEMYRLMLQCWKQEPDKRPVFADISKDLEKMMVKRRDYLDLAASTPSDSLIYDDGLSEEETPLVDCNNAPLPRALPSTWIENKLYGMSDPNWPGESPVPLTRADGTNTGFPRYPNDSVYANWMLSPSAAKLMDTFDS
Sequence of Ret wt (P07949 29-1114): as the sequence (P07949 29-1114 V804M) above, with M776V counted along it

For the compound `C#CC(=O)N1CCN(c2ccc(-c3cc(-c4cnn(C)c4)cn4ncc(C#N)c34)cn2)CC1` [Example 5], the IC50 (in general, the midpoint of a concentration-inhibition curve) on Ret wt is 0.39 nM; on Ret V804M, 8.2 nM.
Consider `C#CC(=O)N1C2CC1CN(c1ccc(-c3cc(-c4cnn(C)c4)cn4ncc(C#N)c34)cn1)C2` [Example 31, 6-(1-methyl-1H-pyrazol-4-yl)-4-(6-(6-propioloyl-3,6-diazabicyclo[3.1.1]heptan-3-yl)pyridin-3-yl)pyrazolo[1,5-a]pyridine-3-carbonitrile], for which the figures for the concentration for half-maximal inhibition (IC50) on Ret wt and against Ret V804M were 1.95 nM and 44.3 nM, respectively.
Regarding `C#Cc1cccc(CN2C3CC2CN(c2ccc(-c4cc(-c5cnn(C)c5)cn5ncc(C#N)c45)cn2)C3)n1` [Example 221, 4-(6-(6-((6-ethynylpyridin-2-yl)methyl)-3,6-diazabicyclo[3.1.1]hept-3-yl)pyridin-3-yl)-6-(1-methyl-1H-pyrazol-4-yl)pyrazolo[1,5-a]pyridine-3-carbonitrile], the IC50 against Ret wt came to 0.55 nM; against Ret V804M it was 12.4 nM.
For `C#Cc1cc(F)c(CN2C3CC2CN(c2ccc(-c4cc(-c5cnn(C)c5)cn5ncc(C#N)c45)cn2)C3)c(F)c1` [Example 222, 4-(6-(6-(4-ethynyl-2,6-difluorobenzyl)-3,6-diazabicyclo[3.1.1]heptan-3-yl)pyridin-3-yl)-6-(1-methyl-1H-pyrazol-4-yl)pyrazolo[1,5-a]pyridine-3-carbonitrile], the half-maximal inhibitory concentration (IC50) on Ret wt was 0.43 nM; against Ret V804M, 4.35 nM.
On the same counts, the results for `C#Cc1cccc(CN2CCN(c3ccc(-c4cc(-c5cnn(C)c5)cn5ncc(C#N)c45)cn3)CC2)c1F` [Example 224, 4-(6-(4-(3-ethynyl-2-fluorobenzyl)piperazin-1-yl)pyridin-3-yl)-6-(1-methyl-1H-pyrazol-4-yl)pyrazolo[1,5-a]pyridine-3-carbonitrile] are 0.57 nM and 21 nM.
With `C#Cc1ccc(CN2CCN(c3ccc(-c4cc(-c5cnn(C)c5)cn5ncc(C#N)c45)cn3)CC2)nc1` [Example 225], the IC50 at Ret wt came out at 0.39 nM; against Ret V804M it was 2.22 nM.
On the same counts, the results for `C#Cc1ccc(C(=O)N2C3CC2CN(c2ccc(-c4cc(-c5cnn(C)c5)cn5ncc(C#N)c45)cn2)C3)cc1F` [Example 232, 4-(6-(6-(4-ethynyl-3-fluorobenzoyl)-3,6-diazabicyclo[3.1.1]heptan-3-yl)pyridin-3-yl)-6-(1-methyl-1H-pyrazol-4-yl)pyrazolo[1,5-a]pyridine-3-carbonitrile] are 0.37 nM and 1.79 nM.
On the same counts, the results for `C#Cc1cc(C(=O)N2C3CC2CN(c2ccc(-c4cc(-c5cnn(C)c5)cn5ncc(C#N)c45)cn2)C3)ccc1F` [Example 233, 4-(6-(6-(3-ethynyl-4-fluorobenzoyl)-3,6-diazabicyclo[3.1.1]heptan-3-yl)pyridin-3-yl)-6-(1-methyl-1H-pyrazol-4-yl)pyrazolo[1,5-a]pyridine-3-carbonitrile] are 0.5 nM and 8.92 nM.
On the same counts, the results for `C#Cc1cc(F)c(C(=O)N2CCN(c3ccc(-c4cc(-c5cnn(C)c5)cn5ncc(C#N)c45)cn3)CC2)c(F)c1` [Example 234, 4-(6-(4-(4-ethynyl-2,6-difluorobenzoyl)piperazin-1-yl)pyridin-3-yl)-6-(1-methyl-1H-pyrazol-4-yl)pyrazolo[1,5-a]pyridine-3-carbonitrile] are 4 nM and 62.3 nM.
On to `C#Cc1cc(F)c(C(=O)N2C3CC2CN(c2ccc(-c4cc(-c5cnn(C)c5)cn5ncc(C#N)c45)cn2)C3)c(F)c1` [Example 235], for which the IC50 is 0.4 nM against Ret wt and 10 nM against Ret V804M.
On to `C#Cc1ccc(C(=O)N2CCN(c3ccc(-c4cc(-c5cnn(C)c5)cn5ncc(C#N)c45)cn3)CC2)cc1F` [Example 236, 4-(6-(4-(4-ethynyl-3-fluorobenzoyl)piperazin-1-yl)pyridin-3-yl)-6-(1-methyl-1H-pyrazol-4-yl)pyrazolo[1,5-a]pyridine-3-carbonitrile], for which the values for the IC50 against Ret wt and against Ret V804M were 1.57 nM and 19.7 nM, respectively.
The matching figures for `C#Cc1ccc(C(=O)N2CCN(c3ccc(-c4cc(-c5cnn(C)c5)cn5ncc(C#N)c45)cn3)CC2)nc1` [Example 237, 4-(6-(4-(5-ethynylpicolinoyl)piperazin-1-yl)pyridin-3-yl)-6-(1-methyl-1H-pyrazol-4-yl)pyrazolo[1,5-a]pyridine-3-carbonitrile]: 0.39 nM and 2.06 nM.
`C#Cc1ccc(C(=O)N2C3CC2CN(c2ccc(-c4cc(-c5cnn(C)c5)cn5ncc(C#N)c45)cn2)C3)nc1` [Example 238, 4-(6-(6-(5-ethynylpicolinoyl)-3,6-diazabicyclo[3.1.1]heptan-3-yl)pyridin-3-yl)-6-(1-methyl-1H-pyrazol-4-yl)pyrazolo[1,5-a]pyridine-3-carbonitrile]: the concentration for half-maximal inhibition (IC50) against Ret wt is 0.3 nM; against Ret V804M, 2.75 nM.
For the compound `C#Cc1cc(C(=O)N2CCN(c3ccc(-c4cc(-c5cnn(C)c5)cn5ncc(C#N)c45)cn3)CC2)ccc1F` [Example 239, 4-(6-(4-(3-ethynyl-4-fluorobenzoyl)piperazin-1-yl)pyridin-3-yl)-6-(1-methyl-1H-pyrazol-4-yl)pyrazolo[1,5-a]pyridine-3-carbonitrile], the half-maximal inhibitory concentration (IC50) came out at 0.62 nM at Ret wt and 12.3 nM on Ret V804M.
In the case of `Cn1cc(-c2cc(-c3ccc(N4CC5CC(C4)N5CC#Cc4ccc(C(F)(F)F)cc4)nc3)c3c(C#N)cnn3c2)cn1` [Example 242, 6-(1-methyl-1H-pyrazol-4-yl)-4-(6-(6-(3-(4-(trifluoromethyl)phenyl)prop-2-yn-1-yl)-3,6-diazabicyclo[3.1.1]heptan-3-yl)pyridin-3-yl)pyrazolo[1,5-a]pyridine-3-carbonitrile], the IC50 on Ret wt turned out to be 1.72 nM.
As for `COc1cc(C#CCN2CCN(c3ccc(-c4cc(-c5cnn(C)c5)cn5ncc(C#N)c45)cn3)CC2)ccn1` [Example 243, 4-(6-(4-(3-(2-methoxypyridin-4-yl)prop-2-yn-1-yl)piperazin-1-yl)pyridin-3-yl)-6-(1-methyl-1H-pyrazol-4-yl)pyrazolo[1,5-a]pyridine-3-carbonitrile], the figures for the half-inhibitory concentration (IC50) against Ret wt and against Ret V804M were 3.51 nM and 37.8 nM, respectively.
The matching figures for `Cn1cc(-c2cc(-c3ccc(N4CC5CC(C4)N5CC#Cc4ccccn4)nc3)c3c(C#N)cnn3c2)cn1` [Example 244]: 0.15 nM and 0.27 nM.
On the same counts, the results for `Cn1cc(-c2cc(-c3ccc(N4CC5CC(C4)N5CC#Cc4ccncc4)nc3)c3c(C#N)cnn3c2)cn1` [Example 245, 6-(1-methyl-1H-pyrazol-4-yl)-4-(6-(6-(3-(pyridin-4-yl)propan-2-yn-1-yl)-3,6-diazabicyclo[3.1.1]heptan-3-yl)pyridin-3-yl)pyrazole[1,5-a]pyridine-3-carbonitrile] are 0.65 nM and 10.7 nM.
On to `Cn1cc(-c2cc(-c3ccc(N4CC5(CCN(C(=O)C#Cc6ccccc6)CC5)C4)nc3)c3c(C#N)cnn3c2)cn1` [Example 269, 6-(1-methyl-1H-pyrazol-4-yl)-4-(6-(7-(3-phenylpropioloyl)-2,7-diazaspiro[3.5]nonan-2-yl)pyridin-3-yl)pyrazolo[1,5-a]pyridine-3-carbonitrile], for which inhibition at Ret wt was half-maximal at 27 nM (IC50).
